Data published in US7008905B2, “Method of combating undesired plant growth on cereals” (BASF Aktiengesellschaft, priority 2000, dated 2006).

What was measured:
Type in all cases: in vivo
HORVW = assay: Pre-emergence test, selectivity; conditions: 3 weeks after treatment, rating 0-100 (100=death), Table 2
How it was run: (§1)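 Using a 900 l/ha spray volume, test formulations are applied to newly sown soil at five rates from 15 to 240 g/ha. Each formulation is an acetone solution containing 0.4% w/w wetting agent, diluted with water; visual 0–100 ratings follow at three weeks.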

[1] = test system: Triticum aestivum variety “Kanzler”; assay: Pre-emergence test, selectivity; conditions: 3 weeks after treatment, rating 0-100 (100=death), Table 2
How it was run: as §1

[2] = test system: Triticum aestivum variety “Monopol”; assay: Pre-emergence test, selectivity; conditions: 3 weeks after treatment, rating 0-100 (100=death), Table 2
How it was run: as §1

[3] = test system: Hordeum vulgare variety “Mammut”; assay: Pre-emergence test, selectivity; conditions: 3 weeks after treatment, rating 0-100 (100=death), Table 2
How it was run: as §1

Setaria viridis [4] = assay: Post-emergence test, weed control; conditions: 2–4 weeks after treatment, rating 0-100 (100=death), Table 5
Procedure: (§2) These acetone solutions are diluted with water and the resulting formulations applied at dosage levels equivalent of about 0.030 to 0.240 kg per hectare of test compound per pot. After spraying the plants are placed an greenhouse benches and are cared for in the usual manner, commensurate with conventional greenhouse practices. From 2 to 4 weeks after treatment, the seedling plants are examined and rated according to the rating system provided above. A rating 0 indicates growth as untreated control, a rating 100 indicates death.

[5] = test system: Triticum aestivum variety “Kanzler”; assay: Post-emergence test, selectivity; conditions: 2–4 weeks after treatment, rating 0-100 (100=death), Table 6
Procedure: as §2

[6] = test system: Triticum aestivum variety “Monopol”; assay: Post-emergence test, selectivity; conditions: 2–4 weeks after treatment, rating 0-100 (100=death), Table 6
Procedure: as §2

wheat = assay: Post-emergence test, tolerance in wheat; conditions: in vivo
Procedure: as §2

Alopecurus myosuroides = assay: Pre-emergence test, weed control; conditions: 3 weeks after treatment, rating 0-100 (100=death), Table 1
How it was run: as §1

Galium aparine = assay: Pre-emergence test, weed control; conditions: 3 weeks after treatment, rating 0-100 (100=death), Table 1
How it was run: as §1

Polygonum convolvulus = assay: Pre-emergence test, weed control; conditions: 3 weeks after treatment, rating 0-100 (100=death), Table 1
How it was run: as §1

Matricaria inodora = assay: Pre-emergence test, weed control; conditions: 3 weeks after treatment, rating 0-100 (100=death), Table 1
How it was run: as §1

Poa annua = assay: Pre-emergence test, weed control; conditions: 3 weeks after treatment, rating 0-100 (100=death), Table 1
How it was run: as §1

Stellaria media = assay: Pre-emergence test, weed control; conditions: 3 weeks after treatment, rating 0-100 (100=death), Table 1
How it was run: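 Herbicidal effect was scored visually on a 0–100 scale (100 = death, 0 = untreated-like) three weeks after treatment. Soil was horticultural loam sprayed just after sowing with aqueous-diluted acetone/0.4% TRITON X-155 formulations at 15–240 g a.i./ha (900 L/ha).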

Lolium perenne = assay: Pre-emergence test, weed control; conditions: 3 weeks after treatment, rating 0-100 (100=death), Table 1
How it was run: as §1

Veronica persica = assay: Pre-emergence test, weed control; conditions: 3 weeks after treatment, rating 0-100 (100=death), Table 1
How it was run: as §1

Apera spica-venti = assay: Pre-emergence test, weed control; conditions: 3 weeks after treatment, rating 0-100 (100=death), Table 1
How it was run: as §1

Setaria viridis [7] = assay: Pre-emergence test, weed control; conditions: 3 weeks after treatment, rating 0-100 (100=death), Table 1
How it was run: as §1

Lamium purpureum = assay: Pre-emergence test, weed control; conditions: 3 weeks after treatment, rating 0-100 (100=death), Table 1
How it was run: as §1

CCc1cc(Oc2cccc(C(F)(F)F)c2)nc(-c2ccc(C(F)(F)F)cc2)n1 [REF-3]
HORVW rating (Selectivity) (HORVW; 0.015 kg/ha): 15
HORVW rating (Selectivity) (HORVW; 0.030 kg/ha): 45
HORVW rating (Selectivity) (HORVW; 0.060 kg/ha): 45
HORVW rating (Selectivity) (HORVW; 0.120 kg/ha): 60
HORVW rating (Selectivity) (HORVW; 0.240 kg/ha): 60
TRZAWK rating (Selectivity) ([1]; 0.015 kg/ha): 5
TRZAWK rating (Selectivity) ([1]; 0.030 kg/ha): 8
TRZAWK rating (Selectivity) ([1]; 0.060 kg/ha): 8
TRZAWK rating (Selectivity) ([1]; 0.120 kg/ha): 25
TRZAWK rating (Selectivity) ([1]; 0.240 kg/ha): 40
TRZAWM rating (Selectivity) ([2]; 0.015 kg/ha): 3
TRZAWM rating (Selectivity) ([2]; 0.030 kg/ha): 8
TRZAWM rating (Selectivity) ([2]; 0.060 kg/ha): 10
TRZAWM rating (Selectivity) ([2]; 0.120 kg/ha): 35
TRZAWM rating (Selectivity) ([2]; 0.240 kg/ha): 45
HORVWM rating (Selectivity) ([3]; 0.015 kg/ha): 20
HORVWM rating (Selectivity) ([3]; 0.030 kg/ha): 30
HORVWM rating (Selectivity) ([3]; 0.060 kg/ha): 40
HORVWM rating (Selectivity) ([3]; 0.120 kg/ha): 55
HORVWM rating (Selectivity) ([3]; 0.240 kg/ha): 55
SETVI weed control rating (Setaria viridis [4]; 0.030 kg/ha): 95
SETVI weed control rating (Setaria viridis [4]; 0.060 kg/ha): 98
SETVI weed control rating (Setaria viridis [4]; 0.120 kg/ha): 99
SETVI weed control rating (Setaria viridis [4]; 0.240 kg/ha): 100
TRZAWK rating (Selectivity) ([5]; 0.03 kg/ha): 12
TRZAWK rating (Selectivity) ([5]; 0.06 kg/ha): 15
TRZAWK rating (Selectivity) ([5]; 0.12 kg/ha): 25
TRZAWK rating (Selectivity) ([5]; 0.24 kg/ha): 35
TRZAWM rating (Selectivity) ([6]; 0.03 kg/ha): 10
TRZAWM rating (Selectivity) ([6]; 0.06 kg/ha): 15
TRZAWM rating (Selectivity) ([6]; 0.12 kg/ha): 22
TRZAWM rating (Selectivity) ([6]; 0.24 kg/ha): 30
maximum tolerated dose in wheat / dose at which sufficiently selective in wheat (wheat): clearly less selective in wheat than TTP
ALOMY weed control rating (Alopecurus myosuroides; 0.015 kg/ha): 55
ALOMY weed control rating (Alopecurus myosuroides; 0.030 kg/ha): 98
ALOMY weed control rating (Alopecurus myosuroides; 0.060 kg/ha): 98
ALOMY weed control rating (Alopecurus myosuroides; 0.120 kg/ha): 100
ALOMY weed control rating (Alopecurus myosuroides; 0.240 kg/ha): 100
GALAP weed control rating (Galium aparine; 0.060 kg/ha): 50
GALAP weed control rating (Galium aparine; 0.120 kg/ha): 85
GALAP weed control rating (Galium aparine; 0.240 kg/ha): 97
POLCO weed control rating (Polygonum convolvulus; 0.015 kg/ha): 25
POLCO weed control rating (Polygonum convolvulus; 0.030 kg/ha): 70
POLCO weed control rating (Polygonum convolvulus; 0.060 kg/ha): 80
POLCO weed control rating (Polygonum convolvulus; 0.120 kg/ha): 100
POLCO weed control rating (Polygonum convolvulus; 0.240 kg/ha): 100
MATIN weed control rating (Matricaria inodora; 0.015 kg/ha): 99
MATIN weed control rating (Matricaria inodora; 0.030 kg/ha): 99
MATIN weed control rating (Matricaria inodora; 0.060 kg/ha): 99
MATIN weed control rating (Matricaria inodora; 0.120 kg/ha): 100
MATIN weed control rating (Matricaria inodora; 0.240 kg/ha): 100
POAAN weed control rating (Poa annua; 0.015 kg/ha): 100
POAAN weed control rating (Poa annua; 0.030 kg/ha): 100
POAAN weed control rating (Poa annua; 0.060 kg/ha): 100
POAAN weed control rating (Poa annua; 0.120 kg/ha): 100
POAAN weed control rating (Poa annua; 0.240 kg/ha): 100
STEME weed control rating (Stellaria media; 0.015 kg/ha): 98
STEME weed control rating (Stellaria media; 0.030 kg/ha): 100
STEME weed control rating (Stellaria media; 0.060 kg/ha): 100
STEME weed control rating (Stellaria media; 0.120 kg/ha): 100
STEME weed control rating (Stellaria media; 0.240 kg/ha): 100
LOLPE weed control rating (Lolium perenne; 0.015 kg/ha): 90
LOLPE weed control rating (Lolium perenne; 0.030 kg/ha): 98
LOLPE weed control rating (Lolium perenne; 0.060 kg/ha): 99
LOLPE weed control rating (Lolium perenne; 0.120 kg/ha): 99
LOLPE weed control rating (Lolium perenne; 0.240 kg/ha): 100
VERPE weed control rating (Veronica persica; 0.015 kg/ha): 100
VERPE weed control rating (Veronica persica; 0.030 kg/ha): 100
VERPE weed control rating (Veronica persica; 0.060 kg/ha): 100
VERPE weed control rating (Veronica persica; 0.120 kg/ha): 100
VERPE weed control rating (Veronica persica; 0.240 kg/ha): 100
APESV weed control rating (Apera spica-venti; 0.015 kg/ha): 100
APESV weed control rating (Apera spica-venti; 0.030 kg/ha): 100
APESV weed control rating (Apera spica-venti; 0.060 kg/ha): 100
APESV weed control rating (Apera spica-venti; 0.120 kg/ha): 100
APESV weed control rating (Apera spica-venti; 0.240 kg/ha): 100
SETVI weed control rating (Setaria viridis [7]; 0.015 kg/ha): 100
SETVI weed control rating (Setaria viridis [7]; 0.030 kg/ha): 100
SETVI weed control rating (Setaria viridis [7]; 0.060 kg/ha): 100
SETVI weed control rating (Setaria viridis [7]; 0.120 kg/ha): 100
SETVI weed control rating (Setaria viridis [7]; 0.240 kg/ha): 100
LAMPU weed control rating (Lamium purpureum; 0.015 kg/ha): 100
LAMPU weed control rating (Lamium purpureum; 0.030 kg/ha): 100
LAMPU weed control rating (Lamium purpureum; 0.060 kg/ha): 100
LAMPU weed control rating (Lamium purpureum; 0.120 kg/ha): 100
LAMPU weed control rating (Lamium purpureum; 0.240 kg/ha): 100
